According to article PMC5325326, “Evaluation of the intestinal permeability of rosemary (Rosmarinus officinalis L.) extract polyphenols and terpenoids in Caco-2 cell monolayers” (PLoS ONE, 2017):
“Also recorded” adds a separate entry of the source.

Test system: Caco-2 cell monolayers
Assay: not given
Settings: not given

Row | Compound | Papp, Encapsulated RE, AB direction | Papp, Non encapsulated RE, AB direction
1 | CC(C)c1cc2c(cc1O)[C@@]1(C)CCC(=O)C(C)(C)[C@@H]1CC2 [Hinokione] | no absorption | no absorption

Test system: not listed separately
Assay: BCS classification based on experimental Papp (AB direction, free formulation)
Assay type: in vitro ADME
Design: dose or concentration left out as unconfirmed
Settings: human, Caco-2, pH 7.4, versus metoprolol Papp, Table 2, read-out: Permeability Based on Papp
Source text: The Biopharmaceutical Classification System (BCS) was developed by Amidon and coworkers twenty years ago to classify drugs for a waiver of in vivo bioequivalence studies. This system classifies drugs into four categories based on their intestinal permeability and solubility (see S1 Table), and currently this system is accepted worldwide by researchers and governmental institutions such as the FDA and EMA. In addition to its regulatory use, BCS is a tool for drug development because it helps identify the limiting factors in the absorption process. In this work, the 24 compounds identified from RE were classified individually according to this system to obtain relevant information regarding their absorbed oral fraction. For this purpose, only data derived from the free extract permeation were used.
Log P values were obtained for all compounds using ChemDraw software® Ultra version 8.0 (CambridgeSoft Corp. USA) and are shown in Table 2. The Log P value is a widely accepted parameter to express the lipophilicities of biological drugs in medicinal and agro chemistry. According to BCS, compounds are divided into high permeability (Class I: high permeability, high solubility; Class II: high permeability, low solubility) or low permeability (Class III: low permeability, high solubility; Class IV: low permeability, low solubility) categories by comparing with the Log P value (2.18) of the standard metoprolol, which is the reference compound employed for this purpose. Based on this parameter, the permeabilities of all compounds derived from RE were tabulated as high or low (Table 2). Moreover, the Papp value of this reference drug (0.6 x 10^−4 cm/s) was also available, which allowed us to establish another classification for the permeabilities of RE compounds based on this parameter, using the Papp values of the compounds obtained in the AB direction only for the free formulations (Table 2). Therefore, the Log P and Papp values were used in Table 2 to classify compounds as […] drugs for permeability, providing two different classifications based on the partition coefficient and the intestinal permeability.
As no information was available regarding the maximum doses of these compounds, two putative scenarios were selected to simulate a high-activity drug, dosed as a 10-mg tablet, or a low-activity drug, dosed as a 100-mg tablet. […] In the present study, all compounds were classified for BCS by considering the experimental data for absorption (Papp) and the calculated Log P value (Table 2). According to the Log P value, most compounds belong to the high-permeability classes (I and II), with class II being the most numerous (Fig 2A), except in the case of the flavonoids. However, when experimental Papp values were used for classification, the results changed dramatically, and low-permeability classes (III and IV) became the most abundant (Fig 2B). This classification was nearly independent of the solubility scenario and considered dose (compare Fig 2 and S1 Fig). […] Most flavones in RE were classified as class III (low permeability, high solubility) and class IV (low permeability, low solubility) with the exception of apigenin, for which no experimental Papp could be determined and, consequently, no BCS classification was proposed. […] The phenylpropanoid derivatives shogaol and shogaol isomer (gingerol-like compounds) were classified as class II (high permeability, low solubility), which is in agreement with the presence of a long saturated carbon chain in their structure that confers a certain degree of hydrophobicity to these compounds.

Row | Papp at 120 min [×10⁻⁶ cm/s] | Compound
2 | < 60 | CC(C)c1cc2c(c(O)c1O)C(=O)C1CCCC(C)(C)C1CC2 (centres unmarked) [Rosmaridiphenol]
3 | > 60 | CC(C)c1cc2c(c(O)c1O)[C@@]13CCCC(C)(C)[C@@H]1[C@H](O)[C@@H]2OC3=O [Epiisorosmanol]
4 | < 60 | CC(C)c1cc2c(c(O)c1O)[C@@]13CCCC(C)(C)[C@@H]1C[C@@H]2OC3=O [Carnosol]
5 | < 60 | CC(C)c1cc(C=O)c2c(c1O)OC(=O)[C@@]21CCCC(C)(C)[C@@H]1C=O [Rosmadial]
6 | < 60 | CC(C)c1cc2c(c(O)c1O)[C@@]13CCCC(C)(C)[C@@H]1[C@H](OC3=O)[C@H]2O [Rosmanol]
7 | < 60 | COc1c(C(C)C)cc2c(c1O)[C@@]1(C(=O)O)CCCC(C)(C)[C@@H]1CC2 [12-Methoxycarnosic acid]
8 | < 60 | CC(C)c1cc2c(c(O)c1O)C13CCCC(C)(C)C1C(OC3=O)C2O (centres unmarked) [Epirosmanol]

More lines, now with the values behind:

Row | Compound | Papp at 120 min [×10⁻⁶ cm/s]
9 | COc1ccc(-c2cc(=O)c3c(O)cc(O)cc3o2)cc1O [Diosmetin] | < 60
10 | C=C(C)[C@@H]1CC[C@]2(C(=O)O)CC[C@]3(C)[C@H](CC[C@@H]4[C@@]5(C)CC[C@H](O)[C@@](C)(CO)[C@@H]5CC[C@]43C)[C@@H]12 [Anemosapogenin] | < 60
11 | Cc1cc2c(cc(O)c1=O)[C@@]13CCCC(C)(C)[C@@H]1C[C@@H]2OC3 [Miltipolone] | < 60
12 | COc1cc2oc(-c3ccc(O)cc3)cc(=O)c2c(O)c1OC [Cirsimaritin] | < 60
13 | C=C1CCC2(C(=O)O)CCC3(C)C(=CCC4C5(C)CCC(O)C(C)(C)C5CCC43C)C2C1C (centres unmarked) [Micromeric acid] | < 60
14 | CC1CCC2(C(=O)O)CCC3(C)C(=CCC4C5(C)CCC(O)C(C)(C)C5CCC43C)C2C1(C)O (centres unmarked) [Benthamic acid] | < 60
15 | COc1cc(O)c2c(=O)cc(-c3ccc(O)cc3)oc2c1 [Genkwanin] | < 60
16 | COc1c(O)cc2oc(-c3ccc(O)cc3)cc(=O)c2c1O [Hispidulin] | < 60
17 | CC1(C)CC[C@]2(C(=O)O)CC[C@]3(C)C(=CC[C@@H]4[C@@]5(C)C[C@H](O)[C@H](O)C(C)(C)[C@@H]5CC[C@]43C)[C@@H]2C1 [Augustic acid] | < 60

Test system: not listed separately
Assay: in vitro
Settings: human, Caco-2, pH 7.4

Row | Compound | Papp B→A at 120 min, 200 μg/mL [×10⁻⁶ cm/s]
18 | CC(C)c1cc2c(cc1O)[C@@]1(C)CCC(=O)C(C)(C)[C@@H]1CC2 [Hinokione] | 13.6

Test system: Caco-2 cell monolayers
Assay: not given
Design: method as in printed
Settings: reference for BCS permeability class; stated as available, ref not given; cited from earlier work

Row | Compound | Papp value of the reference drug [×10⁻⁶ cm/s]
19 | COCCc1ccc(OCC(O)CNC(C)C)cc1 (centres unmarked) [metoprolol] | 60

Test system: Caco-2 cell monolayers
Assay: Caco-2 monolayer transport study (apparent permeability, Papp) of rosemary extract compounds
Settings: all samples; amounts below LOQ detected in cytoplasmic fractions

Row | Compound | retention by Caco-2 cells / transport to the receptor chamber
20 | (9)-Shogaol [[9]-Shogaol] | partly retained by Caco-2 cells without any transport to the receptor chamber

Same assay, conditions: encapsulated formulation

Row | Compound | detection in donor chamber, cells and receptor chamber
21 | C=C(C)[C@@H]1CC[C@]2(C(=O)O)CC[C@]3(C)[C@H](CC[C@@H]4[C@@]5(C)CC[C@H](O)C(C)(C)[C@@H]5CC[C@]43C)[C@@H]12 [Betulinic acid] | detected both in the donor chamber and also inside the cells but was not detected in the receptor chamber

Same assay, conditions: free RE 200 μg/mL, apical to basolateral, 120 min, 37°C, mean of six replicates

Row | Papp, Non encapsulated RE, AB direction | Compound
22 | E-06 range | CC(C)c1cc2c(c(O)c1O)C(=O)C1CCCC(C)(C)C1CC2 (centres unmarked) [Rosmaridiphenol]
23 | not absorbed | C=C(C)[C@@H]1CC[C@]2(C(=O)O)CC[C@]3(C)[C@H](CC[C@@H]4[C@@]5(C)CC[C@H](O)C(C)(C)[C@@H]5CC[C@]43C)[C@@H]12 [Betulinic acid]

Same assay, conditions: free RE 200 μg/mL, basolateral to apical, 120 min, 37°C, mean of six replicates

Row | Compound | Papp, Non encapsulated RE, BA direction
24 | Cc1cc2c(cc(O)c1=O)[C@@]13CCCC(C)(C)[C@@H]1C[C@@H]2OC3 [Miltipolone] | not absorbed; also recorded: no absorption

Same assay, conditions: free formulation, AB direction

Row | retention by Caco-2 cells | Compound
25 | partly retained by the Caco-2 cells | C=C(C)[C@@H]1CC[C@]2(C(=O)O)CC[C@]3(C)[C@H](CC[C@@H]4[C@@]5(C)CC[C@H](O)C(C)(C)[C@@H]5CC[C@]43C)[C@@H]12 [Betulinic acid]
26 | partly retained by the Caco-2 cells | C[C@H]1[C@H](C)CC[C@]2(C(=O)O)CC[C@]3(C)C(=CC[C@@H]4[C@@]5(C)CC[C@H](O)C(C)(C)[C@@H]5CC[C@]43C)[C@H]12 [Ursolic acid]

Same assay, conditions: liposomal RE formulation, apical to basolateral, 120 min, 37°C, mean of six replicates

Row | Papp, Encapsulated RE, AB direction | Compound
27 | no absorption | CC(C)c1cc2c(c(O)c1O)C(=O)C1CCCC(C)(C)C1CC2 (centres unmarked) [Rosmaridiphenol]
28 | no absorption | Cc1cc2c(cc(O)c1=O)[C@@]13CCCC(C)(C)[C@@H]1C[C@@H]2OC3 [Miltipolone]
29 | no absorption | COc1c(C(C)C)cc2c(c1O)[C@@]1(C(=O)O)CCCC(C)(C)[C@@H]1CC2 [12-Methoxycarnosic acid]
30 | no absorption | CC(C)c1cc2c(c(O)c1O)[C@@]1(C(=O)O)CCCC(C)(C)[C@@H]1CC2 [Carnosic acid]

Test system: not listed separately
Assay: as above
Settings: human, Caco-2, pH 7.4

Row | Papp A→B at 120 min, 200 μg/mL [×10⁻⁶ cm/s] | Papp B→A at 120 min, 200 μg/mL [×10⁻⁶ cm/s] | Papp A→B at 120 min [×10⁻⁶ cm/s] | Papp B→A at 120 min [×10⁻⁶ cm/s] | Compound
31 | 2.43 | 2.68 | – | – | CC(C)c1cc2c(c(O)c1O)C(=O)C1CCCC(C)(C)C1CC2 (centres unmarked) [Rosmaridiphenol]
32 | 104 | 9.23 | 8.18 | 13 | CC(C)c1cc2c(c(O)c1O)[C@@]13CCCC(C)(C)[C@@H]1[C@H](O)[C@@H]2OC3=O [Epiisorosmanol]
33 | 14.6 | 13.5 | 0.0403 | 0.261 | CC(C)c1cc2c(c(O)c1O)[C@@]13CCCC(C)(C)[C@@H]1C[C@@H]2OC3=O [Carnosol]
34 | 19 | 15.9 | 2.67 | 12.4 | CC(C)c1cc(C=O)c2c(c1O)OC(=O)[C@@]21CCCC(C)(C)[C@@H]1C=O [Rosmadial]
35 | 45.9 | 44.2 | 29.1 | 33.3 | CC(C)c1cc2c(c(O)c1O)[C@@]13CCCC(C)(C)[C@@H]1[C@H](OC3=O)[C@H]2O [Rosmanol]
36 | 18.5 | 27.7 | – | – | COc1c(C(C)C)cc2c(c1O)[C@@]1(C(=O)O)CCCC(C)(C)[C@@H]1CC2 [12-Methoxycarnosic acid]
37 | 55.1 | 12.1 | 1.92 | 2.63 | CC(C)c1cc2c(c(O)c1O)C13CCCC(C)(C)C1C(OC3=O)C2O (centres unmarked) [Epirosmanol]
38 | 127 | 90.4 | – | – | CC(C)c1cc2c(c(O)c1O)[C@@]1(C(=O)O)CCCC(C)(C)[C@@H]1CC2 [Carnosic acid]

The next lines start with the compound.

Row | Compound | Papp A→B at 120 min, 200 μg/mL [×10⁻⁶ cm/s] | Papp B→A at 120 min, 200 μg/mL [×10⁻⁶ cm/s] | Papp A→B at 120 min [×10⁻⁶ cm/s] | Papp B→A at 120 min [×10⁻⁶ cm/s]
39 | COc1ccc(-c2cc(=O)c3c(O)cc(O)cc3o2)cc1O [Diosmetin] | 2.5 | 4.13 | – | –
40 | C=C(C)[C@@H]1CC[C@]2(C(=O)O)CC[C@]3(C)[C@H](CC[C@@H]4[C@@]5(C)CC[C@H](O)[C@@](C)(CO)[C@@H]5CC[C@]43C)[C@@H]12 [Anemosapogenin] | 3.27 | 6.17 | – | –
41 | Cc1cc2c(cc(O)c1=O)[C@@]13CCCC(C)(C)[C@@H]1C[C@@H]2OC3 [Miltipolone] | 17.6 | – | – | 0.168
42 | COc1cc2oc(-c3ccc(O)cc3)cc(=O)c2c(O)c1OC [Cirsimaritin] | 33.3 | 30.7 | – | –
43 | C=C1CCC2(C(=O)O)CCC3(C)C(=CCC4C5(C)CCC(O)C(C)(C)C5CCC43C)C2C1C (centres unmarked) [Micromeric acid] | 7.2 | 2.45 | – | –
44 | C=C(C)[C@@H]1CC[C@]2(C(=O)O)CC[C@]3(C)[C@H](CC[C@@H]4[C@@]5(C)CC[C@H](O)C(C)(C)[C@@H]5CC[C@]43C)[C@@H]12 [Betulinic acid] | – | 6.3 | – | –
45 | CC1CCC2(C(=O)O)CCC3(C)C(=CCC4C5(C)CCC(O)C(C)(C)C5CCC43C)C2C1(C)O (centres unmarked) [Benthamic acid] | 5.2 | 7.03 | – | –
46 | C[C@H]1[C@H](C)CC[C@]2(C(=O)O)CC[C@]3(C)C(=CC[C@@H]4[C@@]5(C)CC[C@H](O)C(C)(C)[C@@H]5CC[C@]43C)[C@H]12 [Ursolic acid] | – | 7.2 | – | –
47 | COc1cc(O)c2c(=O)cc(-c3ccc(O)cc3)oc2c1 [Genkwanin] | 14.9 | 16.2 | – | –
48 | COc1c(O)cc2oc(-c3ccc(O)cc3)cc(=O)c2c1O [Hispidulin] | 9.05 | 13.1 | – | –
49 | CC1(C)CC[C@]2(C(=O)O)CC[C@]3(C)C(=CC[C@@H]4[C@@]5(C)C[C@H](O)[C@H](O)C(C)(C)[C@@H]5CC[C@]43C)[C@@H]2C1 [Augustic acid] | 7.35 | 7.93 | – | –
